Calls of active or inactive are those of the source.
How the values were obtained:
[1] = biological target: T1, Apoptotic protease-activating factor 1 (Homo sapiens, UniProt O14727); experiment: SAR analysis of small molecule Activators of Apaf-1 in a Fluorescent assay.; format: functional; conditions: read-out: EC50_Mean;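 also: caspase-3 cleavage of fluorogenic Rh110 DEVD substrate downstream of apoptosome activation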
T1 sequence (O14727 whole entry): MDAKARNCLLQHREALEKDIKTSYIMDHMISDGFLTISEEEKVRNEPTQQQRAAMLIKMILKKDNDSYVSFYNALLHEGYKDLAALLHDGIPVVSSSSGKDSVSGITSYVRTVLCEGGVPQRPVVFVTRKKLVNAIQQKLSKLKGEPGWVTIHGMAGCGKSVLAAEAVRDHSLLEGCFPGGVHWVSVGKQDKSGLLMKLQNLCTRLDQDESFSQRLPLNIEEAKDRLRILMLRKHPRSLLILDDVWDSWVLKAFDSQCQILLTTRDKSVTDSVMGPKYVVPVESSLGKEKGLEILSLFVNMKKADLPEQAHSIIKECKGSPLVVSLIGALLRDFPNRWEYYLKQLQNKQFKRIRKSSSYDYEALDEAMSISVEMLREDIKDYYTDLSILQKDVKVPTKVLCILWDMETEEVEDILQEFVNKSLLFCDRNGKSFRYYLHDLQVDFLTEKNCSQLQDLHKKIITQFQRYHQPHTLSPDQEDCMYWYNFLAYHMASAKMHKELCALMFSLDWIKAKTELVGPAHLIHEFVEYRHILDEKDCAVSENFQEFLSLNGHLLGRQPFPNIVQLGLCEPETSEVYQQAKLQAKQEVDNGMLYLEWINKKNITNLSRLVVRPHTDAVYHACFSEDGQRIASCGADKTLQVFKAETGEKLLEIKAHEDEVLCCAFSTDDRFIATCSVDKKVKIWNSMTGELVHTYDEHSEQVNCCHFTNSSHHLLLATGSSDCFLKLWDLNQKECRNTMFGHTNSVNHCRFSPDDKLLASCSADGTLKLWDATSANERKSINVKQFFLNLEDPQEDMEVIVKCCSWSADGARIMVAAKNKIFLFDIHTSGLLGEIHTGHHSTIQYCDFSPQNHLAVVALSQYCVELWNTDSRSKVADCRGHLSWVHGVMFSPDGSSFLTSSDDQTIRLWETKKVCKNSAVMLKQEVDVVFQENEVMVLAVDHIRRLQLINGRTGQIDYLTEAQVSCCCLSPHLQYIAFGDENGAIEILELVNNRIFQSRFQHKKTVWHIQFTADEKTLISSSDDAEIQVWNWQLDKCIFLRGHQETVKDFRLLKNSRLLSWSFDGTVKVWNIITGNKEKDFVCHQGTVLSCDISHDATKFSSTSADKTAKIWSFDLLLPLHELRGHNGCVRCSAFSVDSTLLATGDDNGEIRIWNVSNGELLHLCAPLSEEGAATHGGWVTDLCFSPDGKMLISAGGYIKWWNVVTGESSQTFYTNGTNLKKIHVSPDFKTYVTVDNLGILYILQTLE

[2] = Luminescence Cell-Based Dose Retest to Confirm Inhibitors of Cancer Stem Cells. [Related pubchem assays (depositor defined):AID2717, AID2721]; format: functional; conditions: Homo sapiens
Vero = experiment: cells; format: functional; conditions: Chlorocebus sabaeus
[3] = biological target: Hepatocyte nuclear factor 4-alpha (Homo sapiens, UniProt P41235); format: functional, cell-based;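 also: biochemical luminescence-based dose-response counterscreen measuring inhibition of HNF4 dimerization, run alongside a screen for blockers of ABHD5–perilipin-5 interaction; split luciferase complementation of HNF4 fusion proteins in cell lysate measuring dimerization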
Chain of Hepatocyte nuclear factor 4-alpha (P41235 whole entry, the tested form may be a part): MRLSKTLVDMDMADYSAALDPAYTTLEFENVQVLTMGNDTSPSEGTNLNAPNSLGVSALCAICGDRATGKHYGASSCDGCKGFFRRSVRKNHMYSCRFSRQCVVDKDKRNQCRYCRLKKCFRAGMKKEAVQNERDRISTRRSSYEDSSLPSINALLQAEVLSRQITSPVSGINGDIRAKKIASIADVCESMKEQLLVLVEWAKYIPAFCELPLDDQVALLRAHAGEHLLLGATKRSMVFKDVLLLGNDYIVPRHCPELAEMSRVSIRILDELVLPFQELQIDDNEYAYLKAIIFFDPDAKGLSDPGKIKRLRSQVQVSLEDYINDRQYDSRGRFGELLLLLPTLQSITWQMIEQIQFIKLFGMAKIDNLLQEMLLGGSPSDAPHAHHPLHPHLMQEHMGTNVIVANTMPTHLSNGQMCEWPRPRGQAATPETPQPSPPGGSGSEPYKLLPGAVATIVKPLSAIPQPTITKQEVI

[4] = biological target: Induced myeloid leukemia cell differentiation protein Mcl-1 (Homo sapiens, UniProt Q07820); experiment: MCL1-BIM BH3 interaction inhibitors, dose response, biochemical, fluorescence polarization, BIM-BH3 peptide, 1536-well (AID 2217)
Chain of Induced myeloid leukemia cell differentiation protein Mcl-1 (Q07820 whole entry): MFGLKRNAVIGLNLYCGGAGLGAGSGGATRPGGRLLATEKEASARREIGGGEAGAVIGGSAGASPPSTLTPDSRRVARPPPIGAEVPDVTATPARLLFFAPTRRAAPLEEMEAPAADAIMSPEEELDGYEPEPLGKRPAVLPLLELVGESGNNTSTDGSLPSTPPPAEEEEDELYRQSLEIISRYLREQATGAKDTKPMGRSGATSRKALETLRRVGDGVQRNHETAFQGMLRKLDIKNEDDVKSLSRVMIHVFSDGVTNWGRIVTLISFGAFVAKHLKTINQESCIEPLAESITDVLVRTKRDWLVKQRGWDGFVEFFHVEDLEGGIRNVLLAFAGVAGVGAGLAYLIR

Bcl-2-like protein 1 = Bcl-2-like protein 1 (Homo sapiens, UniProt Q07817); experiment: BCL-XL inhibitors, dose response, selectivity assay for MCL1 inhibitor project, biochemical, fluorescence polarization, 1536-well (AID 2218)
Chain of Bcl-2-like protein 1 (Q07817 whole entry): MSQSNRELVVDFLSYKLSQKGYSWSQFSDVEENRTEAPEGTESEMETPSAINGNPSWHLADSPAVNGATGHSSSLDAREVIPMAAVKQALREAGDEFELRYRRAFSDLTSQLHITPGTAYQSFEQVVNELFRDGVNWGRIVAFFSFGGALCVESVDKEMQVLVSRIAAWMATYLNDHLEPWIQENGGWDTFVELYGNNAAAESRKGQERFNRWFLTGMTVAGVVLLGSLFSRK

[5] = biological target: DNA (cytosine-5)-methyltransferase 1 (Homo sapiens, UniProt P26358); experiment: DNMT1 methyltransferase inhibitors, confirmation, biochemical, fluorescent molecular beacon (AID 602386); format: functional
Chain of DNA (cytosine-5)-methyltransferase 1 (P26358 whole entry): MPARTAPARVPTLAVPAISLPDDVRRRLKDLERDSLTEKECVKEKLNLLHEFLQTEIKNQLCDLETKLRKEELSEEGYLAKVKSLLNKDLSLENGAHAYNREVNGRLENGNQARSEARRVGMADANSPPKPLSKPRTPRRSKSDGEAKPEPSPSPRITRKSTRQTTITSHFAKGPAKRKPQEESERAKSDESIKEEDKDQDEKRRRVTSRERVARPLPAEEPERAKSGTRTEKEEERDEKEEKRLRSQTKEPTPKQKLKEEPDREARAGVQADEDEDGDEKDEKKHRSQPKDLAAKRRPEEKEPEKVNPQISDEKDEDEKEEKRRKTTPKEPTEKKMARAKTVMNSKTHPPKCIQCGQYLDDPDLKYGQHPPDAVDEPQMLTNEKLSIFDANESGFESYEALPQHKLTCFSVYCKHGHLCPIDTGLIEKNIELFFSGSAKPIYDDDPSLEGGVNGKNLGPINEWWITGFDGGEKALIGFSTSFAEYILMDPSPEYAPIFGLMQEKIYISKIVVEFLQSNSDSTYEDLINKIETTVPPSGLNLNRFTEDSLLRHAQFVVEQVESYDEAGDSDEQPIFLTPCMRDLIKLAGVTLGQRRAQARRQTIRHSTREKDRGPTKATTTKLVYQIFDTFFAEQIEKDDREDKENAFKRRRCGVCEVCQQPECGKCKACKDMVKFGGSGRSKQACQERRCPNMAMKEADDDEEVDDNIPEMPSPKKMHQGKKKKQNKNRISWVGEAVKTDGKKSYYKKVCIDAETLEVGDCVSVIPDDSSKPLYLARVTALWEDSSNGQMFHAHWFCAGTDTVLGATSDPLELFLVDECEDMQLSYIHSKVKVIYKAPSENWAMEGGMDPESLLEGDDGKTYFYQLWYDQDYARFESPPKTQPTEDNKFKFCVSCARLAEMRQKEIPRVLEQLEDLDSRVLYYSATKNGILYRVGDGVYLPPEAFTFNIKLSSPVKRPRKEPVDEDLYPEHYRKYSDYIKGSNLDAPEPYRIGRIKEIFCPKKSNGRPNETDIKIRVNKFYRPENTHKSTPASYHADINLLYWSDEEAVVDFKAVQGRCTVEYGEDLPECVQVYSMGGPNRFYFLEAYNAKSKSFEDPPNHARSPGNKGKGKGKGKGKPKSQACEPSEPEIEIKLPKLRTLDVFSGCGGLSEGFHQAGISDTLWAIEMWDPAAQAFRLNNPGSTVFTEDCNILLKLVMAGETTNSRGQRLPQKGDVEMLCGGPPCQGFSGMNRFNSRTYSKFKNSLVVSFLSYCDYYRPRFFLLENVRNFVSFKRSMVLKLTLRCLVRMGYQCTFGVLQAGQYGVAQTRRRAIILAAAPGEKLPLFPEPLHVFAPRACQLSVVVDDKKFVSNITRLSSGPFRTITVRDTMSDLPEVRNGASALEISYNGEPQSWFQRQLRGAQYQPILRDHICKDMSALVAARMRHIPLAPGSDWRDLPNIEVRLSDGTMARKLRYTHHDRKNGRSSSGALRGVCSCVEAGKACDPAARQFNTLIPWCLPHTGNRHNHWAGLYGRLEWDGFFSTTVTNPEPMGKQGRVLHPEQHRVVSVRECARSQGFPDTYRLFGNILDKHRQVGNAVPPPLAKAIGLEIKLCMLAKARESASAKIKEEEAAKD

[6] = biological target: T2, Small ubiquitin-related modifier 1 (Homo sapiens, UniProt P63165); experiment: inhibitors of SUMO1 peptide binding, dose response, biochemical, fluorescence polarization, uHTS hits (AID 624382); format: functional; conditions: read-out: IC50_Mean
T2 sequence (P63165 whole entry): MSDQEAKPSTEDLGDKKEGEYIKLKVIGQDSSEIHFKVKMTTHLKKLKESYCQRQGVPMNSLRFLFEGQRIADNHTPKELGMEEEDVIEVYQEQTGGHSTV

[7] = biological target: T2, Small ubiquitin-related modifier 1; experiment: inhibitors of SUMO1 partner interactions, dose response, biochemical, FRET (AID 624383); format: functional; conditions: read-out: IC50_Mean
[8] = biological target: Nuclear receptor subfamily 5 group A member 2 (Homo sapiens, UniProt O00482); format: functional, cell-based;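 also: HEK293T cells transfected with LRH-1 and a StAR promoter luciferase reporter; potency for inhibitors that lower LRH-1 driven reporter light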
Chain of Nuclear receptor subfamily 5 group A member 2 (O00482 whole entry): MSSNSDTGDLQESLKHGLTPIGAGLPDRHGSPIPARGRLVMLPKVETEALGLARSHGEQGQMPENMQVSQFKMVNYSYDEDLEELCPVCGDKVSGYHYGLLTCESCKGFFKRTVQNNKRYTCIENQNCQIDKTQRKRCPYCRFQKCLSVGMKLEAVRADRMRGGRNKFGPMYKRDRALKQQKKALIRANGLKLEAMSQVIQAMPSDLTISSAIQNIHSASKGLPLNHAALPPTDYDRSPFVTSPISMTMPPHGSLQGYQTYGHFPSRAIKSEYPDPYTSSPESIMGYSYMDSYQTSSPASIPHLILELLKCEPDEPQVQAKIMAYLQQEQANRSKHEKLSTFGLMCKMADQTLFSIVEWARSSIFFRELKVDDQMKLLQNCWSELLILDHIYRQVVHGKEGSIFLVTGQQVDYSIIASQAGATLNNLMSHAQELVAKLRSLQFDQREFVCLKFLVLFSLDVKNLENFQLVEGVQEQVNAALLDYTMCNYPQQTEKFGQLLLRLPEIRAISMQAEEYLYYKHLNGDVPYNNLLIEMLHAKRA

Steroidogenic factor 1 = Steroidogenic factor 1 (Homo sapiens, UniProt Q13285); experiment: Counterscreen for inverse agonists of the liver receptor homolog-1 (LRH-1; NR5A2): Luminescence-based cell-based high throughput dose response assay to identify inverse agonists of the Steroidogenic Factor 1 Nuclear Receptor (SF1; NR5A1).; format: functional
Chain of Steroidogenic factor 1 (Q13285 whole entry): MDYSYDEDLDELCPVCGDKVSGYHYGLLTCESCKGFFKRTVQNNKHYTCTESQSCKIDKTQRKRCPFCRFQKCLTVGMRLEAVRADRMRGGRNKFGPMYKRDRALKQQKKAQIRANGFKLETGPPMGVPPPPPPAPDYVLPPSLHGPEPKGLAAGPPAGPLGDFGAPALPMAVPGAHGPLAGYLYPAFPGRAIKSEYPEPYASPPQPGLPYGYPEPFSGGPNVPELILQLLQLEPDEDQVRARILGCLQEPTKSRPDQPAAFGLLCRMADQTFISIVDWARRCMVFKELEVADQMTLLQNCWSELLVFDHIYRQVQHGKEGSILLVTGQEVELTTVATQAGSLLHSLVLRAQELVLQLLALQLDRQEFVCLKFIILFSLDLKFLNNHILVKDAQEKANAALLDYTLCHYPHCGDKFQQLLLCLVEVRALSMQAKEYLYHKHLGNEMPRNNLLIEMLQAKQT

[9] = StAR promoter reporter inhibition counter-screen, dose response, counter-screen for LRH-1 inverse agonist project, cell-based, luminescence, luciferase reporter (AID 651969); format: functional
Beta Lactamase = Beta Lactamase (Pseudomonas aeruginosa, UniProt Q932Y6);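 also: confirmatory high-throughput screen measuring VIM-2 metallo-beta-lactamase inhibition by epi-absorbance in dose response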
Chain of Beta Lactamase (Q932Y6 whole entry): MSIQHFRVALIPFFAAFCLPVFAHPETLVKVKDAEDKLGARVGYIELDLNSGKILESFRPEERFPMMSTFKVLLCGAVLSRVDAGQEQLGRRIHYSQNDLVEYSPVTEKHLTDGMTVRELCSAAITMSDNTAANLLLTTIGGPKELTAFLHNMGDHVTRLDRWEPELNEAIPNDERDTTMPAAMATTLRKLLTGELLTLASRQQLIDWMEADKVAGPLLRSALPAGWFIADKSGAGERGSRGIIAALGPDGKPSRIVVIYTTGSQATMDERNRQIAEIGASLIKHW

Beta-lactamase [10] = biological target: Beta-lactamase (Pseudomonas aeruginosa, UniProt Q79MP6);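 also: biochemical dose-response test of metallo-beta-lactamase enzyme inhibition, read out by epi-absorbance; purified recombinant IMP-1 metallo-beta-lactamase with nitrocefin as substrate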
Chain of Beta-lactamase (Pseudomonas aeruginosa, UniProt Q79MP6) (Q79MP6 whole entry): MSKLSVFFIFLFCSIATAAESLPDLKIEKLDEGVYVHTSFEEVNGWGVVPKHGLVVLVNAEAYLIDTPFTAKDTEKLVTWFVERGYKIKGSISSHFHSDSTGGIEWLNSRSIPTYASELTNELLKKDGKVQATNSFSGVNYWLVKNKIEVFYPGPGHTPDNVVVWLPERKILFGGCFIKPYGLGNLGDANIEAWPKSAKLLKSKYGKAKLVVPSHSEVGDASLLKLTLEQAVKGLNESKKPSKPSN

Beta-lactamase [11] = biological target: Beta-lactamase (Salmonella choleraesuis (strain SC-B67), UniProt Q5J463)
Chain of Beta-lactamase (Salmonella choleraesuis (strain SC-B67), UniProt Q5J463) (Q5J463 whole entry): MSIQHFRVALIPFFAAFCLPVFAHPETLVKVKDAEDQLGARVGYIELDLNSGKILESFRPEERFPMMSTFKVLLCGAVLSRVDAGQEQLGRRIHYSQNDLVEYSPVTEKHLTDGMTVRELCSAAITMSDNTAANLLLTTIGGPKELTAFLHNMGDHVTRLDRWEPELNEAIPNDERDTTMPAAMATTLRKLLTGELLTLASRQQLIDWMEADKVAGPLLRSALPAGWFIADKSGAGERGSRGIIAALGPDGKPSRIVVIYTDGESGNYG
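For AC50 in this document: cells exposed to compound for roughly 70 hours or longer before luminescence read.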

In the case of `Cc1nn(Cc2ccccc2)c(C)c1CCC(=O)O`, the EC50 [1] is reported as > 100 µM (inactive).
With `Cc1ccc(/C=C/C(=O)c2cc(Br)ccc2OC(=O)c2ccco2)cc1` the AC50 [2] was 4.76 µM (active), the CC50 (Vero) was 24.4 µM (active) and the IC50 [3] was 1.96 µM (active).
In the case of `CCOc1ccc(NC(=O)c2cccc(-n3cccc3)c2)cc1S(=O)(=O)N1CCOCC1`, the IC50 [4] is reported as > 4.03 µM (active), the IC50 (Bcl-2-like protein 1) is reported as > 109 µM (not active) and the IC50 [5] is reported as 9.08 µM (active). For the same compound, the IC50 [6] was > 66.6 µM (inactive) and the IC50 [7] was 3.29 µM (active).
With `CC1(C(=O)NCc2ccc3c(c2)OCO3)CCN1C(=O)Cc1ccc(Cl)cc1Cl` (stereo not given) the IC50 [8] was 7.36 µM (active), the IC50 (Steroidogenic factor 1) was 3.32 µM (active) and the IC50 [9] was 35.9 µM (inactive).
For `C/C(=N\O)c1ccc2c3c([nH]c2c1)CCCC3`, the IC50 (Beta Lactamase) was > 59.6 µM (inactive), the IC50 (Beta-lactamase [10]) was > 59.6 µM (inactive) and the IC50 (Beta-lactamase [11]) was > 59.6 µM (inactive).

From ChEMBL document CHEMBL1201862, “PubChem BioAssay data set” (2004)
